Laboratory results reported in PMC7398594 (Neurotoxicology, 2020).

Columns and labels:
Format in all cases: cell-based, mouse
HEI-OC1 cells [1] = experiment: MTT cellular viability assay; conditions: HEI-OC1 cell culture, ± standard deviation
HEI-OC1 cells [2] = experiment: Mitochondrial membrane potential assay; conditions: treated at compound IC50 value
[3] = tested on: caspase-3/7 activity in HEI-OC1 cells; experiment: Caspase-3/7 luminescence assay; conditions: treated at compound IC50 value
HEI-OC1 cells [4] = experiment: Reactive oxygen species assay; conditions: 24 hours, treated at compound IC50 value

SMILES	IC50 (HEI-OC1 cells [1]; 24 Hr treatment) [nM]	IC50 (HEI-OC1 cells [1]; 48 Hr treatment) [nM]	mitochondrial membrane polarization (FL1 to FL3 ratio), % of negative control (HEI-OC1 cells [2]; 24 hours) [%]	mitochondrial membrane polarization (FL1 to FL3 ratio), % of negative control (HEI-OC1 cells [2]; 48 hours) [%]	caspase-3/7 activity, % of negative control ([3]; 24 hours) [%]	caspase-3/7 activity, % of negative control ([3]; 48 hours) [%]	ROS yield, % of negative control (HEI-OC1 cells [4]) [%]
N.N.[Cl][Pt][Cl] [cisplatin]	1660 ± 330	4520 ± 170	109	110	86	352	751
[NH3+][Pt-2]([NH3+])([Cl])[n+]1cc2ccccc2c2ccccc21 (stereo not drawn) [phenanthriplatin, cis-diammine (phenanthridine) chloroplatinum(II)]	1640 ± 190	2310 ± 290	98	88	83	89	741
[NH3+][Pt-2]([NH3+])([Cl])[n+]1ccccc1 (stereo not drawn) [pyriplatin, cis-diammine (pyridine) chloroplatinum(II)]	11100 ± 280	2520 ± 110	101	90	82	101	618
